The values below come from US20120129884A1, “PHOTOCHEMOTHERAPEUTIC HETEROCYCLIC AGENTS HAVING ANTIPROLIFERATIVE AND ANTINEOPLASTIC ACTIVITY” (UNIVERSITA DEGLI STUDI DI PADOVA, priority 2009, published 2012).

For data set [1], the system named is breast adenocarcinoma (MCF-7). Briefly: Phototoxicity after UV-A irradiation, MTT test. The format is cell-based, human. Conditions: mean ± SEM. As to the method:
(§1) The evaluation of phototoxic activity was carried out in some human tumour cell lines: T-cell leukaemia (Jurkat), chronic myeloid leukaemia (K-562), colon adenocarcinoma (LoVo) and breast adenocarcinoma (MCF-7). Cellular survival experiments were carried out without irradiation to verify an eventual toxicity of photosensitizer in the dark, and then after two times of irradiation (10 and 15 min of UV-A, which correspond to 2.5 and 3.75 J/cm^2, respectively), using lamps which emit mainly at 365 nm. Cell survival was checked after 72 h of compound incubation or after 72 h from UVA irradiation by Mosmann's MTT reduction test (3-[4,5-dimethyltiazol-2yl] 2,5-diphenyl tetrazolium bromide), (T. Mossman, Rapid colorimetric assay for cellular growth and survival: application to proliferation and cytotoxicity assays, J. Immunol. Meths. 1983, 65, 55-63). […] In Table 2, there are GI50 values, that is the compound concentration required for 50% cell survival, for each cell line and for every time of irradiation.

The test system of data set [2] is chronic myeloid leukaemia (K-562). Put plainly: Phototoxicity after UV-A irradiation, MTT test. It is filed as cell-based, human. Conditions: mean ± SEM. As to the method:
as §1
For orientation: Tetrazolium assays rely on reduction of a dye to a coloured formazan, in cell work by metabolically active cells.

Data set [3] concerns colon adenocarcinoma (LoVo). Briefly: Phototoxicity after UV-A irradiation, MTT test. It is filed as cell-based, human. To be noted: mean ± SEM. As to the method:
as §1

Data set [4] deals with T-cell leukaemia (Jurkat). Briefly: Phototoxicity after UV-A irradiation, MTT test. It is filed as cell-based, human. Conditions: mean ± SEM. The method, then: as §1
The subject of data set [5] is human tumour cell lines (Jurkat, K-562, LoVo, MCF-7). Briefly: Phototoxicity / dark toxicity in all tested human tumour cell lines, MTT test. It is filed as cell-based. To be noted: after UVA irradiation. The method, then:
as §1

Data set [6] has as its system plasmid (pBR322) DNA. Briefly: Plasmid strand break / DNA photodamage experiments (Fpg, Endo III). It is filed as biochemical. To be noted: pBR322, irradiated, Fpg and Endo III. The method, then: After having assessed a weak affinity toward this macromolecule in the dark by such spectroscopic techniques as linear dichroism and fluorimetric titrations, some plasmid (pBR322) strand break experiments were carried out to check an eventual DNA photodamage by compounds. The formation of open circular or linear DNA from a supercoiled plasmid DNA was monitored by the separation of the three forms using agarose gel horizontal electrophoresis. Beside the formation of frank strand breaks, oxidative damages to purine and pyrimidine bases were also evaluated, incubating the irradiated mixture with the repair enzyme Fpg (Formamidopyrimidine glycosylase) and Endo III (Endonuclase III), respectively. (B. Epe, M. Pflaum, S. Boiteux, DNA damage induced by photosensitizers in cellular and cell-free systems, Mut. Res. 1993, 299, 135-145; T. A. Ciulla, J. R. Van Camp, E. Rosenfeld, I. Kochevar, Photosensitization of single-strand breaks in pBR322 DNA by Rose Bengal, Photochem. Photobiol. 1989, 49, 293-298).

The subject of data set [7] is Jurkat cells. Briefly: Mitochondrial membrane potential by JC-1 probe after irradiation. The format is cell-based, human. To be noted: JC-1, 2 h from irradiation, with respect to control. The method, then: Other two tests were performed to have more information about the mechanism of action and to evaluate which organelles were involved in this process. […] (X. Wang, The expanding role of mitochondria in apoptosis, Gen. Develop. 2001, 15, 2922-2933). An eventual mitochondrial involvement in apoptosis induction was evaluated by such a parameter of mitochondrial dysfunction as the loss of mitochondrial membrane potential. Mitochondrial membrane potential of Jurkat cells was monitored by JC-1 probe after their irradiation in the presence of 9j, 9k and 9m (S. Salvioli, A. Ardizzoni, C. Franceschi, A. Cossarizza, JC-1, but not DiOC6(3) or rhodamine 123, is a reliable fluorescent probe to assess […] changes in intact cells: implications for studies on mitochondrial functionality during apoptosis, FEBS Lett. 1997, 411, 77-82).

Where [8] appears, read: UV-A 2.5 J/cm^2, 72 h after irradiation.
The mark [9] stands for this setting: UV-A 3.75 J/cm^2, 72 h after irradiation.
The mark [10] stands for this setting: Homo sapiens, light or radiation study, 72 h, UV-A 2.5 J/cm^2, 72 h after irradiation.
Where [11] appears, read: Homo sapiens, light or radiation study, 72 h, UV-A 3.75 J/cm^2, 72 h after irradiation.

The term GI50 denotes the concentration giving 50% growth inhibition. A lower GI50 goes with greater sensitivity of the cells.

The structures appear in SMILES notation.

Regarding `CCOC(=O)c1cc2c(n1Cc1ccc(OC)cc1)-c1[nH]c(=O)c(S(=O)(=O)c3ccccc3)cc1CC2` [Compound 9m, Ethyl 1-(p-methoxy-benzyl)-7-(phenylsulfonyl)-1,4,5,9-tetrahydro-8H-pyrrolo[3,24] quinolin-8-one-2-carboxylate], the GI50 amounted to 1.6 ± 0.2 µM in data set [1] (MCF-7, UV-A 2.5 J/cm^2, 72 h after irradiation); 1.4 ± 0.2 µM in data set [1] (MCF-7, UV-A 3.75 J/cm^2, 72 h after irradiation); 1 ± 0.1 µM in data set [2] (K-562, UV-A 2.5 J/cm^2, 72 h after irradiation); 0.9 ± 0.1 µM in data set [2] (K-562, UV-A 3.75 J/cm^2, 72 h after irradiation); 1.1 ± 0.1 µM in data set [3] (setting [8]); 1 ± 0.2 µM in data set [3] (setting [9]). Also, the values for the GI50 in data set [4] (setting [8]) and in data set [4] (setting [9]) were 0.8 ± 0.1 µM and 0.7 ± 0.1 µM, respectively. Moreover, in data set [5], the “GI50 (phototoxic)” value is “submicromolar”. For the same compound, the “DNA photodamage (photocleavage, oxidative damages in DNA bases)” value in data set [6] is reported as “do not induce DNA photodamage”. The “cell percentage with collapsed mitochondrial potential” value in data set [7] is on record as “increase of cell percentage with collapsed mitochondrial potential”.

Take `CCOC(=O)c1cc2c(n1Cc1ccccc1)-c1[nH]c(=O)c(S(=O)(=O)c3ccccc3)cc1CC2` [Compound 9k, Ethyl 1-benzyl-7-(phenylsulfonyl)-1,4,5,9-tetrahydro-8H-pyrrolo[3,2-h]quinolin-8-one-2-carboxylate]: the GI50 in data set [1] (Homo sapiens, MCF7, light or radiation study, 72 h, MCF-7, UV-A 2.5 J/cm^2, 72 h after irradiation) was found to be 0.9 ± 0.1 µM; in data set [1] (Homo sapiens, MCF7, light or radiation study, 72 h, MCF-7, UV-A 3.75 J/cm^2, 72 h after irradiation) it was 0.8 ± 0.1 µM; in data set [2] (Homo sapiens, K562, light or radiation study, 72 h, K-562, UV-A 2.5 J/cm^2, 72 h after irradiation), 0.9 ± 0.1 µM; in data set [2] (Homo sapiens, K562, light or radiation study, 72 h, K-562, UV-A 3.75 J/cm^2, 72 h after irradiation) it was 0.6 ± 0.1 µM; in data set [3] (setting [10]), 0.9 ± 0.1 µM; in data set [3] (setting [11]) it was 0.8 ± 0.1 µM. Besides, the GI50 in data set [4] (setting [10]) stood at 0.8 ± 0.1 µM; in data set [4] (setting [11]), 0.6 ± 0.1 µM. The “GI50 (phototoxic)” value in data set [5] is recorded as “submicromolar”. Further, the “DNA photodamage (photocleavage, oxidative damages in DNA bases)” value in data set [6] is given as “do not induce DNA photodamage”. Moreover, in data set [7], the “cell percentage with collapsed mitochondrial potential” value is reported as “increase of cell percentage with collapsed mitochondrial potential”.
